Where “and” joins values, the source holds several entries; their conditions need not be identical. Equal values may be shown once.
Columns and labels:
[1] = tested on: ANGIOTENSIN II (A11) VASOPRESSOR RESPONSE; test: AII Challenge: blockade of angiotensin II vasopressor response in conscious SHR; assay type: in vivo, rat (Conscious Male Okamoto-Aoki SHR)
Description: By administering a compound of this invention to a rat, and then challenging with angiotensin II, a blockage of the vasopressor response is realized.
Conscious Male Okamoto-Aoki SHR, 16-20 weeks old, weighing approximately 330 g are purchased from Charles River Labs (Wilmington, Mass.). Conscious rats are restrained in a supine position with elastic tape. The area at the base of the tail is locally anesthetized by subcutaneous infiltration with 2% procaine. The ventral caudal artery and vein are isolated, and a cannula made of polyethylene (PE) 10-20 tubing (fused together by heat) is passed into the lower abdominal aorta and vena cava, respectively. The cannula is secured, heparinized (1,000 I.U./ml), sealed and the wound is closed. The animals are placed in plastic restraining cages in an upright position. The cannula is attached to a Statham P23Db pressure transducer, and pulsatile blood pressure is recorded to 10-15 minutes with a Gould Brush recorder. (Chan et al., (Drug Development Res., 18:75-94, 1989).
Angiotensin II (human sequence, Sigma Chem. Co., St. Louis, Mo.) of 0.05 and 0.1 ug/kg i.v. is injected into all rats (predosing response). Then a test compound, vehicle or a known angiotensin II antagonist is administered i.v., i.p. or orally to each set of rats. […] The vasopressor response of angiotensin II is measured for the increase in systolic blood pressure in mmHg. The percentage of antagonism or blockade of the vasopressor response of angiotensin II by a compound is calculated using the vasopressor response (increase in systolic blood pressure) of angiotensin II of each rat predosing the compound as 100%. A compound is considered active if at 30 mg/kg i.v. it antagonized at least 50% of the response.

Angiotension II Receptor = test: Receptor Binding Assay: competition with [^125 I] (Sar^1,Ile^8) AngII on microsomal membranes; conditions: pH 7.4, 60 min, room temperature
Procedure: Binding of [^125 I] (Sar^1,Ile^8) AngII
The binding of [^125 I] (Sar^1,Ile^8) AngII to microsomal membranes is initiated by the addition of reconstituted membranes (1:10 vols.) in freshly made 50.0 mMTris.HCl buffer, pH 7.4 containing 0.25% heat inactivated bovine serum albumin (BSA):80 ul membrane protein (10 to 20 ug/assay) to wells already containing 100 ul of incubation buffer (as described above) and 20 ul [^125 I] (Sar^1,Ile^8) AngII (Specific Activity, 2200 Ci/mmole). Non-specific binding is measured in the presence of 1.0 uM unlabeled (Sar^1,Ile^8) AngII, added in 20 ul volume. Specific binding for [^125 I] (Sar^1,Ile^8) AngII is greater than 90%. In competition studies, experimental compounds are diluted in dimethylsulfoxide (DMSO) and added in 20 ul to wells before the introduction of tissue membranes. This concentration of DMSO is found to have no negative effects on the binding of [^125 I] (Sar^1,Ile^8) AngII to the membranes. Assays are performed in triplicate. […] Presoaking the filter sheet in 0.1% polyethylenemine in normal saline (PEI/Saline) greatly reduces the radioactivity retained by the filter blanks. […] The filters are removed from the filter grid and counted in a Parkard® Cobra Gamma Counter for 1 min. […] The binding data are analyzed by the non-linear interactive "LUNDON-1" program (LUNDON SOFTWARE Inc., Cleveland, Ohio U.S.A.). […]

[2] = 15 mg/kg IV, AII 0.05 mcg/kg IV, 30 min post dose
[3] = 15 mg/kg IV, AII 0.05 mcg/kg IV, 60 min post dose
[4] = 15 mg/kg IV, AII 0.05 mcg/kg IV, 90 min post dose
[5] = 15 mg/kg IV, AII 0.1 mcg/kg IV, 30 min post dose
[6] = 15 mg/kg IV, AII 0.1 mcg/kg IV, 60 min post dose
[7] = 15 mg/kg IV, AII 0.1 mcg/kg IV, 90 min post dose
[8] = under second '15 IV' line, AII 0.05 mcg/kg IV, 120 min
[9] = under second '15 IV' line, AII 0.05 mcg/kg IV, 180 min
[10] = under second '15 IV' line, AII 0.1 mcg/kg IV, 120 min
[11] = under second '15 IV' line, AII 0.1 mcg/kg IV, 180 min

## CCCCc1nc2c(c(=O)n1Cc1ccc(-c3ccccc3-c3nnn[nH]3)cc1)CN(C(=O)OCc1ccccc1)CC2 [Example 7, Phenylmethyl 2-butyl-3,5,7,8-tetrahydro-4-oxo-3-[[2'-(1H-tetrazol-5-yl)[1,1' -biphenyl] -4-yl]methyl]pyrido[4,3-d]pyrimidin-6(4H)-carboxylate]
[1]; [2]
  Average % Inhibition (angiotensin blockage) of AII vasopressor response: 71%
  Average Change (systolic blood pressure response to AII): 11 mmHg
[1]; [3]
  Average % Inhibition (angiotensin blockage) of AII vasopressor response: 33%
  Average Change (systolic blood pressure response to AII): 25 mmHg
[1]; 15 mg/kg IV, AII 0.05 mcg/kg IV, 60 min post dose, 15 mg/kg
  Change (single reading, systolic blood pressure): 30 mmHg and 20 mmHg
[1]; [4]
  Average % Inhibition (angiotensin blockage) of AII vasopressor response: 31%
  Average Change (systolic blood pressure response to AII): 26 mmHg
[1]; 15 mg/kg IV, AII 0.05 mcg/kg IV, 90 min post dose, 15 mg/kg
  Change (single reading, systolic blood pressure): 30 mmHg and 22 mmHg
[1]; [5]
  Average % Inhibition (angiotensin blockage) of AII vasopressor response: 59%
  Average Change (systolic blood pressure response to AII): 17.5 mmHg
[1]; 15 mg/kg IV, AII 0.1 mcg/kg IV, 30 min post dose, 15 mg/kg
  Change (single reading, systolic blood pressure): 15 mmHg and 20 mmHg
[1]; [6]
  Average % Inhibition (angiotensin blockage) of AII vasopressor response: 11%
  Average Change (systolic blood pressure response to AII): 38 mmHg
[1]; 15 mg/kg IV, AII 0.1 mcg/kg IV, 60 min post dose, 15 mg/kg
  Change (single reading, systolic blood pressure): 40 mmHg and 36 mmHg
[1]; [7]
  Average % Inhibition (angiotensin blockage) of AII vasopressor response: 0%
  Average Change (systolic blood pressure response to AII): 42.5 mmHg
[1]; 15 mg/kg IV, AII 0.1 mcg/kg IV, 90 min post dose, 15 mg/kg
  Change (single reading, systolic blood pressure): 40 mmHg and 45 mmHg
[1]; 15 mg/kg IV, after AII 0.05 mcg/kg IV, 30 min post dose, 15 mg/kg
  Response After A11 (systolic blood pressure): 192 mmHg and 175 mmHg
[1]; 15 mg/kg IV, after AII 0.05 mcg/kg IV, 60 min post dose, 15 mg/kg
  Response After A11 (systolic blood pressure): 200 mmHg and 190 mmHg
[1]; 15 mg/kg IV, after AII 0.05 mcg/kg IV, 90 min post dose, 15 mg/kg
  Response After A11 (systolic blood pressure): 200 mmHg and 182 mmHg
[1]; 15 mg/kg IV, after AII 0.1 mcg/kg IV, 30 min post dose, 15 mg/kg
  Response After A11 (systolic blood pressure): 190 mmHg and 180 mmHg
[1]; 15 mg/kg IV, after AII 0.1 mcg/kg IV, 60 min post dose, 15 mg/kg
  Response After A11 (systolic blood pressure): 215 mmHg and 206 mmHg
[1]; 15 mg/kg IV, after AII 0.1 mcg/kg IV, 90 min post dose, 15 mg/kg
  Response After A11 (systolic blood pressure): 210 mmHg and 200 mmHg
[1]; 15 mg/kg IV, before AII 0.05 mcg/kg IV, 30 min post dose, 15 mg/kg
  Control Before A11 (systolic blood pressure): 185 mmHg and 160 mmHg
[1]; 15 mg/kg IV, before AII 0.05 mcg/kg IV, 60 min post dose
  Control Before A11 (systolic blood pressure): 170 mmHg
[1]; 15 mg/kg IV, before AII 0.05 mcg/kg IV, 90 min post dose, 15 mg/kg
  Control Before A11 (systolic blood pressure): 170 mmHg and 160 mmHg
[1]; 15 mg/kg IV, before AII 0.1 mcg/kg IV, 30 min post dose, 15 mg/kg
  Control Before A11 (systolic blood pressure): 175 mmHg and 160 mmHg
[1]; 15 mg/kg IV, before AII 0.1 mcg/kg IV, 60 min post dose, 15 mg/kg
  Control Before A11 (systolic blood pressure): 175 mmHg and 170 mmHg
[1]; 15 mg/kg IV, before AII 0.1 mcg/kg IV, 90 min post dose, 15 mg/kg
  Control Before A11 (systolic blood pressure): 170 mmHg and 155 mmHg
[1]; [8]
  Average % Inhibition (angiotensin blockage) of AII vasopressor response: 87%
  Average Change (systolic blood pressure response to AII): 5 mmHg
[1]; [9]
  Average % Inhibition (angiotensin blockage) of AII vasopressor response: 33%
  Average Change (systolic blood pressure response to AII): 25 mmHg
  Change (single reading, systolic blood pressure): 25 mmHg
[1]; [10]
  Average % Inhibition (angiotensin blockage) of AII vasopressor response: 81%
  Average Change (systolic blood pressure response to AII): 8 mmHg
  Change (single reading, systolic blood pressure): 6 mmHg and 10 mmHg
[1]; [11]
  Average % Inhibition (angiotensin blockage) of AII vasopressor response: 32%
  Average Change (systolic blood pressure response to AII): 29 mmHg
  Change (single reading, systolic blood pressure): 38 mmHg and 20 mmHg
[1]; under second '15 IV' line, after AII 0.05 mcg/kg IV, 120 min
  Response After A11 (systolic blood pressure): 195 mmHg and 185 mmHg
[1]; under second '15 IV' line, after AII 0.05 mcg/kg IV, 180 min
  Response After A11 (systolic blood pressure): 200 mmHg and 160 mmHg
[1]; under second '15 IV' line, after AII 0.1 mcg/kg IV, 120 min
  Response After A11 (systolic blood pressure): 176 mmHg and 180 mmHg
[1]; under second '15 IV' line, after AII 0.1 mcg/kg IV, 180 min
  Response After A11 (systolic blood pressure): 215 mmHg and 160 mmHg
[1]; under second '15 IV' line, before AII 0.05 mcg/kg IV, 120 min
  Control Before A11 (systolic blood pressure): 185 mmHg
[1]; under second '15 IV' line, before AII 0.05 mcg/kg IV, 180 min
  Control Before A11 (systolic blood pressure): 175 mmHg and 135 mmHg
[1]; under second '15 IV' line, before AII 0.1 mcg/kg IV, 120 min
  Control Before A11 (systolic blood pressure): 170 mmHg
[1]; under second '15 IV' line, before AII 0.1 mcg/kg IV, 180 min
  Control Before A11 (systolic blood pressure): 177 mmHg and 140 mmHg
Angiotension II Receptor
  IC50: 660 nM

Reference: US5281602A, “Angiotensin II receptor blocking 2,3,6-substituted 5,6,7,8-tetrahydro-pyrido[4,3-D]pyrimidin-4(3H)-ones” (American Cyanamid Company, priority 1993, dated 1994)
